Assay results published in article PMC8151276, “An Integrated Approach toward NanoBRET Tracers for Analysis of GPCR Ligand Engagement” (Molecules, 2021).

Legend:
Type in all cases: binding
PTAFR = target: T1, PTAFR (Homo sapiens, UniProt P25105); assay: NanoBRET screen HiBiT-PTAFR in HEK293
T1 construct: purchased Promega (in-house HiBiT-GPCR construct library, NanoBRET)
Description: (§1) Each tracer candidate was screened across the entire library of HiBiT-GPCR constructs using NanoBRET as the detection modality. As depicted in Figure 4A, the specificity of interactions was evaluated through decrease in BRET due to competitive displacement of a bound tracer by excess parental compound. Each tracer was analyzed for binding to each HiBiT-GPCR fusion in the absence and in the presence of competing parental compound. Briefly, HEK293 cells were transfected with HiBiT-GPCR constructs diluted into promoterless DNA to reduce expression and maximize translocation to the cell surface. Each tracer candidate was then screened at concentrations of 1 μM and 0.1 μM across cells expressing these fusions. Cells were treated for 1.5 h with tracer either alone or in the presence of 20 μM competing parental compound (i.e., control). BRET was measured upon addition of purified LgBiT and subsequent complementation with HiBiT genetically fused to a GPCR. The specificity of interactions was assessed through a decrease in BRET signal due to competitive displacement of the bound tracer. To further gauge the robustness of these interactions, the fold response over the control (i.e., BRETtracer/BRETcontrol) was calculated. We chose a 1.5-fold response, which translates to ≥7-fold signal over noise as the minimal threshold required to score an interaction as positive. […]. Below we highlight the screening results obtained for our exemplary fluorescent tracers based on Clozapine, Amitriptyline and AZD1283.
(§2) HiBiT-GPCR DNA constructs were diluted in 10 mM Tris pH 8 to a final concentration of 0.01 μg/μL, arrayed in 96-well plates and stored at −20 °C. For transfection, HEK293 cells were suspended in Opti-MEM (without phenol red) supplemented with 2% fetal bovine serum (Seradigm) and 100 units/mL penicillin–streptomycin (Gibco) at a final concentration of 220,000 cells/mL and dispensed into white 96-well plates at 90 μL/well. Subsequent transfections and screens were carried using an Agilent Bravo Automated Liquid Handling Platform. First, the 96-well HiBiT DNA arrays were diluted 25-fold in Opti-MEM (without serum or phenol red) to a final concentration of 0.0004 μg/μL and 20 μL of the diluted DNAs were transferred into new 96-well plates. Next, promoterless carrier DNA (1 μg/μL) was diluted 25-fold (0.04 μg/μL) and then dispensed into the diluted arrays at 20 μL/well. Following brief mixing, Viafect transfection reagent (Promega) diluted 16-fold into Opti-MEM was dispensed into the plates at 40 μL/well. After mixing by pipetting, plates were incubated for 10 min on the pipetting station deck. The DNA-transfection reagent complexes were then added to plates containing cells. To facilitate the screen, 10 μL of DNA-transfection reagent complexes were added in duplicates to the top 4 and bottom 4 rows, resulting in two identical 48-well arrays per plate. Plates with transfected cells were incubated for 18–20 h at 37 °C/5% CO2. A screen of each tracer across the entire library using two different concentrations requires duplicate plates of transfected cells. Depending on the number of tracers being screened, transfections can be scaled up using the same ratios. The next day, for each tracer, four 20× screening solutions in tracer dilution buffer (Promega) were prepared: two duplicates at final concentration of 20 μM and two duplicates at a final concentration of 2 μM. A competing unmodified compound was added to one of each duplicate at a final concentration of 400 μM. The four resulting solutions were diluted 4-fold in Opti-MEM without serum or phenol red to generate 5× solutions (5 µM and 0.5 µM tracer +/− 100 μM competing compound). To screen the library, a BioTek MultiFlo FX liquid dispenser was used to dispense 22.5 µL of tracer solution to the top 4 rows and 22.5 µL tracer + competing compound solution to the 4 bottom rows. Plates were briefly mixed on an orbital shaker and incubated for 1.5 h at room temperature. […]

VIPR1 = target: T2, VIPR1 (Homo sapiens, UniProt P32241); assay: NanoBRET screen HiBiT-VIPR1 in HEK293
T2 construct: purchased Promega (in-house HiBiT-GPCR construct library, NanoBRET)
T2 sequence (P32241 31-457): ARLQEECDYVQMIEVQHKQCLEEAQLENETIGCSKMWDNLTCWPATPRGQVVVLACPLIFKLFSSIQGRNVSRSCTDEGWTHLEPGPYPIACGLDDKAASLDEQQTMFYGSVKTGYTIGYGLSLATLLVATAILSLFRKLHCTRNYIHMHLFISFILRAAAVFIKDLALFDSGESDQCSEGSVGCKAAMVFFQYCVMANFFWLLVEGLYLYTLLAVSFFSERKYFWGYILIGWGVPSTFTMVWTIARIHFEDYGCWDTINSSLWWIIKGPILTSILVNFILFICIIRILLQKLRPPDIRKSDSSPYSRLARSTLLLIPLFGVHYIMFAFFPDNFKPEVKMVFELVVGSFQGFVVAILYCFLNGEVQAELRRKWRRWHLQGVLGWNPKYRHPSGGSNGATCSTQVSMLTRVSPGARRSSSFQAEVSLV
Description: as §1, §2

MC4R = target: T3, MC4R (Homo sapiens, UniProt P32245); assay: NanoBRET screen HiBiT-MC4R in HEK293
T3 construct: purchased Promega (in-house HiBiT-GPCR construct library, NanoBRET)
Description: as §1, §2

T1 sequence (P25105 whole entry): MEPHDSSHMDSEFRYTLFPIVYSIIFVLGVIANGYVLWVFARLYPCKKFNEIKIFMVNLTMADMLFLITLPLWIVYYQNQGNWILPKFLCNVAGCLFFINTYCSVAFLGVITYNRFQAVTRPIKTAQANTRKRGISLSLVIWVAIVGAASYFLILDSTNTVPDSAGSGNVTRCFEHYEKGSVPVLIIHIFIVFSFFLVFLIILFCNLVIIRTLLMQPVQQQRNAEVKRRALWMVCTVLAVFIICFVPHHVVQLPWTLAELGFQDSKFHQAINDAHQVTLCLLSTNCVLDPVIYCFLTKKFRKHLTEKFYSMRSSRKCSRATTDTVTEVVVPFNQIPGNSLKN
T3 sequence (P32245 whole entry): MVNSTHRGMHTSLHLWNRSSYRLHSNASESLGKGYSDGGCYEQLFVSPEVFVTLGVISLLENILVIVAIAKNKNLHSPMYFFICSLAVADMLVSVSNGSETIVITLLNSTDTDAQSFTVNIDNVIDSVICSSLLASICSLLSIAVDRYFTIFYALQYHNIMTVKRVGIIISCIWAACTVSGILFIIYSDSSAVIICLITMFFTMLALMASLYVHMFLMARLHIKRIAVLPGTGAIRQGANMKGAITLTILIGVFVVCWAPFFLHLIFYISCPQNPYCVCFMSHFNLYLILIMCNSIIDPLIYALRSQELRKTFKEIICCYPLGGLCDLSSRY

Compound	NanoBRET Fold Response (PTAFR; PTAFR, tracer 0.1μM)	NanoBRET Fold Response (PTAFR; PTAFR, tracer 1μM)	NanoBRET Fold Response (VIPR1; VIPR1, tracer 0.1μM)	NanoBRET Fold Response (VIPR1; VIPR1, tracer 1μM)	NanoBRET Fold Response (MC4R; MC4R, tracer 0.1μM)	NanoBRET Fold Response (MC4R; MC4R, tracer 1μM)	NanoBRET Fold Response (PTAFR; PTAFR, 0.1μM tracer)	NanoBRET Fold Response (PTAFR; PTAFR, 1μM tracer)	NanoBRET Fold Response (VIPR1; VIPR1, 0.1μM tracer)	NanoBRET Fold Response (VIPR1; VIPR1, 1μM tracer)	NanoBRET Fold Response (MC4R; MC4R, 0.1μM tracer)	NanoBRET Fold Response (MC4R; MC4R, 1μM tracer)	other results
O=C(CCc1ccc2n1[B-](F)(F)[N+]1=C(c3ccc[nH]3)C=CC1=C2)NCCOCCOCCNC(=O)OCCOCCN1CCN(C2=Nc3ccccc3Sc3ccccc32)CC1 [Quetiapine-a-2-NB590]	1.05	1.13	1.03	0.92	0.97	1.06	–	–	–	–	–	–	–
Cc1cc2c(s1)Nc1ccccc1N=C2N1CCN(CCCNC(=O)CCOCCOCCOCCOCCNC(=O)CCc2ccc3n2[B-](F)(F)[N+]2=C(c4ccc[nH]4)C=CC2=C3)CC1 [Olanzapine-a-2-NB590]	1.00	0.99	1.06	1.04	1.00	1.07	–	–	–	–	–	–	–
CN1CCN(C2=Nc3cc(Cl)ccc3Nc3ccc(CNC(=O)CCOCCOCCOCCOCCNC(=O)CCc4ccc5n4[B-](F)(F)[N+]4=C(c6ccc[nH]6)C=CC4=C5)cc32)CC1 [Clozapine-b-2-NB590]	–	–	–	–	–	–	1.01	1.14	1.12	0.99	1.03	1.05	–
COc1ccc2c(n1)c(CCNC(C)=O)cn2CCNC(=O)CCc1ccc2n1[B-](F)(F)[N+]1=C(c3ccc[nH]3)C=CC1=C2 [Azamelatonin-1-NB590]	–	–	–	–	–	–	–	–	–	–	–	–	NanoBRET Fold Response (PTAFR; 0.1μM tracer): 1.05; NanoBRET Fold Response (PTAFR; 1μM tracer): 1.05; NanoBRET Fold Response (VIPR1; 0.1μM tracer): 0.99; NanoBRET Fold Response (VIPR1; 1μM tracer): 1.21; NanoBRET Fold Response (MC4R; 0.1μM tracer): 0.87; NanoBRET Fold Response (MC4R; 1μM tracer): 1.03
O=C(CCc1ccc2n1[B-](F)(F)[N+]1=C(c3ccc[nH]3)C=CC1=C2)NCc1ccc(C(=O)NCCOCCOCCNCC(O)COc2cccc3ccccc23)cc1 (stereo not drawn) [Propranolol-3-NB590]	–	–	–	–	–	–	–	–	–	–	–	–	NanoBRET Fold Response (PTAFR; PTAFR, 0.1μM): 1.02; NanoBRET Fold Response (PTAFR; PTAFR, 1μM): 1.04; NanoBRET Fold Response (VIPR1; VIPR1, 0.1μM): 1.03; NanoBRET Fold Response (VIPR1; VIPR1, 1μM): 1.04; NanoBRET Fold Response (MC4R; MC4R, 0.1μM): 0.98; NanoBRET Fold Response (MC4R; MC4R, 1μM): 0.99
O=C(CCOCCOCCOCCOCCNC(=O)CCc1ccc2n1[B-](F)(F)[N+]1=C(c3ccc[nH]3)C=CC1=C2)NCCCN1CCN(C2=Nc3cc(Cl)ccc3Nc3ccccc32)CC1 [Clozapine-a-2-NB590]	–	–	–	–	–	–	1.01	0.99	0.98	1.10	1.02	1.01	–
